We go through 25 compounds from patent publication US8648066B2 (Exelixis, Inc., priority 2009, dated 2014).

A value given as a limit tells only on which side of the number the result lay.

The experiment deals with mTOR/GbL/Raptor (mTORC1) (Homo sapiens, UniProt P42345). The experiment in a line: mTOR/GbL/Raptor (mTORC1) ELISA assay. Particulars: phosphorylation of 4E-BP1; 0.2 nM mTORC1, 10 μM ATP; read-out: IC50 in this assay (mTORC1 ELISA). Format: biochemical. Put shortly: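 ELISA read-out: phospho-4E-BP1 captured on Ni-chelate plates and detected with anti-phospho antibody plus HRP-anti-IgG luminescence. The kinase step ran 120 min at ambient temperature with 0.2 nM human mTORC1, 10 µM ATP, 50 nM His-4E-BP1, 10 mM MnCl2, pH 7.2 HEPES.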
On the technique in general: ELISA stands for enzyme-linked immunosorbent assay.
For `CNCc1nc2c(c(N3CCOc4ccc(-c5cnc6nc(C)[nH]c6c5)cc4C3)n1)CC(C)(C)CC2` [Example 354, 1-{6,6-dimethyl-4-[7-(2-methyl-1H-imidazo[4,5-b]pyridin-6-yl)-2,3-dihydro-1,4-benzoxazepin-4(5H)-yl]-5,6,7,8-tetrahydroquinazolin-2-yl}-N-methylmethanamine], the half-inhibitory concentration (IC50) – broadly, the point on the concentration scale where inhibition reaches its midpoint – is at most 10 nM. As to `COC1Cc2nc(CN(C)C)nc(N3CCOc4ccc(-c5cnc6nc(C)[nH]c6c5)cc4C3)c2CC1(C)C` (stereo not shown) [Example 355, 1-{6,6-dimethyl-4-[7-(2-methyl-1H-imidazo[4,5-b]pyridin-6-yl)-2,3-dihydro-1,4-benzoxazepin-4(5H)-yl]-7-(methyloxy)-5,6,7,8-tetrahydroquinazolin-2-yl}-N,N-dimethylmethanamine], the concentration for half-maximal inhibition (IC50) is 50 to 250 nM.

Consider `Cc1nc2cc(-c3ccc4c(c3)CN(c3nc(C(C)N(C)C)nc5c3CC(C)(C)CC5)CCO4)cnc2[nH]1` (stereo not shown) [Example 356, 1-{6,6-dimethyl-4-[7-(2-methyl-3H-imidazo[4,5-b]pyridin-6-yl)-2,3-dihydro-1,4-benzoxazepin-4(5H)-yl]-5,6,7,8-tetrahydroquinazolin-2-yl}-N,N-dimethylethanamine], for which the half-inhibitory concentration (IC50) is 50 to 250 nM.

For the compound `CN(C)Cc1nc2ncc(-c3ccc4c(c3)CN(c3ncnc5c3CC(C)(C)CC5)CCO4)cc2[nH]1` [Example 357, 1-{6-[4-(6,6-dimethyl-5,6,7,8-tetrahydroquinazolin-4-yl)-2,3,4,5-tetrahydro-1,4-benzoxazepin-7-yl]-1H-imidazo[4,5-b]pyridin-2-yl}-N,N-dimethylmethanamine], the IC50 lay in the range of 250 to 1000 nM. To `CNCc1nc2ncc(-c3ccc4c(c3)CN(c3ncnc5c3CC(C)(C)CC5)CCO4)cc2[nH]1` [Example 358, 1-{6-[4-(6,6-dimethyl-5,6,7,8-tetrahydroquinazolin-4-yl)-2,3,4,5-tetrahydro-1,4-benzoxazepin-7-yl]-1H-imidazo[4,5-b]pyridin-2-yl}-N-methylmethanamine] belongs 10 to 50 nM; to `Cc1nc2ncc(-c3ccc4c(c3)CN(c3nc(CN(C)C)nc5ccc(F)cc35)CCO4)cc2[nH]1` [Example 359, 1-{6-fluoro-4-[7-(2-methyl-1H-imidazo[4,5-b]pyridin-6-yl)-2,3-dihydro-1,4-benzoxazepin-4(5H)-yl]quinazolin-2-yl}-N,N-dimethylmethanamine], 250 to 1000 nM; to `Cc1nc2ncc(-c3ccc4c(c3)CN(c3nc(CNC(C)C5CC5)nc5c3CC(C)(C)CC5)CCO4)cc2[nH]1` (stereo not shown) [Example 360, 1-cyclopropyl-N-({6,6-dimethyl-4-[7-(2-methyl-1H-imidazo[4,5-b]pyridin-6-yl)-2,3-dihydro-1,4-benzoxazepin-4(5H)-yl]-5,6,7,8-tetrahydroquinazolin-2-yl}methyl)ethanamine], 10 to 50 nM. To `CNC(=O)Nc1ccc(-c2ccc3c(c2)CN(c2nc(C)nc4cc(OC)ccc24)CCO3)cc1` [Example 361, 1-methyl-3-(4-{4-[2-methyl-7-(methyloxy)quinazolin-4-yl]-2,3,4,5-tetrahydro-1,4-benzoxazepin-7-yl}phenyl)urea] belongs at least 2000 nM; to `CNS(=O)(=O)c1cc(-c2ccc3c(c2)CN(c2ncnc(C)c2Cc2ccc(F)cc2)CCO3)cnc1N` [Example 363, 2-amino-5-(4-{5-[(4-fluorophenyl)methyl]-6-methylpyrimidin-4-yl}-2,3,4,5-tetrahydro-1,4-benzoxazepin-7-yl)-N-methylpyridine-3-sulfonamide], 10 to 50 nM. To `CC(C)NS(=O)(=O)c1cc(-c2ccc3c(c2)CN(c2ncnc4c2CC(C)(C)CC4)CCO3)cnc1N` [Example 364, 2-amino-5-[4-(6,6-dimethyl-5,6,7,8-tetrahydroquinazolin-4-yl)-2,3,4,5-tetrahydro-1,4-benzoxazepin-7-yl]-N-(1-methylethyl)pyridin-3-sulfonamide] belongs 10 to 50 nM; to `CC1(C)CCc2ncnc(N3CCOc4ccc(-c5cnc(N)c(S(=O)(=O)NCC(F)(F)F)c5)cc4C3)c2C1` [Example 365, 2-amino-5-[4-(6,6-dimethyl-5,6,7,8-tetrahydroquinazolin-4-yl)-2,3,4,5-tetrahydro-1,4-benzoxazepin-7-yl]-N-(2,2,2-trifluoroethyl)pyridine-3-sulfonamide], 10 to 50 nM; to `CC1(C)CCc2ncnc(N3CCOc4ccc(-c5cnc(N)c(S(=O)(=O)NCCF)c5)cc4C3)c2C1` [Example 366, 2-amino-5-[4-(6,6-dimethyl-5,6,7,8-tetrahydroquinazolin-4-yl)-2,3,4,5-tetrahydro-1,4-benzoxazepin-7-yl]-N-(2-fluoroethyl)pyridine-3-sulfonamide], 10 to 50 nM. On to `CC1(C)CCc2ncnc(N3CCOc4ccc(-c5cnc(N)c(S(=O)(=O)NC(C)(C)CO)c5)cc4C3)c2C1` [Example 367, 2-amino-5-[4-(6,6-dimethyl-5,6,7,8-tetrahydroquinazolin-4-yl)-2,3,4,5-tetrahydro-1,4-benzoxazepin-7-yl]-N-(2-hydroxy-1,1-dimethylethyl)pyridine-3-sulfonamide], for which the IC50 was 10 to 50 nM. As to `CC(CO)NS(=O)(=O)c1cc(-c2ccc3c(c2)CN(c2ncnc4c2CC(C)(C)CC4)CCO3)cnc1N` (stereo not shown) [Example 368, 2-amino-5-[4-(6,6-dimethyl-5,6,7,8-tetrahydroquinazolin-4-yl)-2,3,4,5-tetrahydro-1,4-benzoxazepin-7-yl]-N-(2-hydroxy-1-methylethyl)pyridine-3-sulfonamide], the 50% inhibitory concentration (IC50) fell in the range of 10 to 50 nM. The figure for `CC(C)(O)CNS(=O)(=O)c1cc(-c2ccc3c(c2)CN(c2ncnc4c2CC(C)(C)CC4)CCO3)cnc1N` [Example 369, 2-amino-5-[4-(6,6-dimethyl-5,6,7,8-tetrahydroquinazolin-4-yl)-2,3,4,5-tetrahydro-1,4-benzoxazepin-7-yl]-N-(2-hydroxy-2-methylpropyl)pyridine-3-sulfonamide] is at most 10 nM.

As for `CN(CCO)S(=O)(=O)c1cc(-c2ccc3c(c2)CN(c2ncnc4c2CC(C)(C)CC4)CCO3)cnc1N` [Example 370, 2-amino-5-[4-(6,6-dimethyl-5,6,7,8-tetrahydroquinazolin-4-yl)-2,3,4,5-tetrahydro-1,4-benzoxazepin-7-yl]-N-(2-hydroxyethyl)-N-methylpyridine-3-sulfonamide], the IC50 was 10 to 50 nM. For `CC1(C)CCc2ncnc(N3CCOc4ccc(-c5cnc(N)c(S(=O)(=O)NCCO)c5)cc4C3)c2C1` [Example 371, 2-amino-5-[4-(6,6-dimethyl-5,6,7,8-tetrahydroquinazolin-4-yl)-2,3,4,5-tetrahydro-1,4-benzoxazepin-7-yl]-N-(2-hydroxyethyl)pyridine-3-sulfonamide], the half-inhibitory concentration (IC50) is at most 10 nM.

As for `CC(O)CNS(=O)(=O)c1cc(-c2ccc3c(c2)CN(c2ncnc4c2CC(C)(C)CC4)CCO3)cnc1N` (stereo not shown) [Example 372, 2-amino-5-[4-(6,6-dimethyl-5,6,7,8-tetrahydroquinazolin-4-yl)-2,3,4,5-tetrahydro-1,4-benzoxazepin-7-yl]-N-(2-hydroxypropyl)pyridine-2-sulfonamide], the concentration for half-maximal inhibition (IC50) lay in the range of 10 to 50 nM. The figure for `CC1(C)CCc2ncnc(N3CCOc4ccc(-c5cnc(N)c(S(=O)(=O)NCC(O)C(F)(F)F)c5)cc4C3)c2C1` (stereo not shown) [Example 373, 2-amino-5-[4-(6,6-dimethyl-5,6,7,8-tetrahydroquinazolin-4-yl)-2,3,4,5-tetrahydro-1,4-benzoxazepin-7-yl]-N-(3,3,3-trifluoro-2-hydroxypropyl)pyridine-3-sulfonamide] is at most 10 nM; for `CC(C)(CO)CNS(=O)(=O)c1cc(-c2ccc3c(c2)CN(c2ncnc4c2CC(C)(C)CC4)CCO3)cnc1N` [Example 374, 2-amino-5-[4-(6,6-dimethyl-5,6,7,8-tetrahydroquinazolin-4-yl)-2,3,4,5-tetrahydro-1,4-benzoxazepin-7-yl]-N-(3-hydroxy-2,2-dimethylpropyl)pyridine-3-sulfonamide] it is 50 to 250 nM; for `CC1(C)CCc2ncnc(N3CCOc4ccc(-c5cnc(N)c(S(=O)(=O)NCCCO)c5)cc4C3)c2C1` [Example 375, 2-amino-5-[4-(6,6-dimethyl-5,6,7,8-tetrahydroquinazolin-4-yl)-2,3,4,5-tetrahydro-1,4-benzoxazepin-7-yl]-N-(3-hydroxypropyl)pyridine-3-sulfonamide] it is at most 10 nM.

For `CC1(C)CCc2ncnc(N3CCOc4ccc(-c5cnc(N)c(S(=O)(=O)NCC6CCCCN6)c5)cc4C3)c2C1` (stereo not shown) [Example 376, 2-amino-5-[4-(6,6-dimethyl-5,6,7,8-tetrahydroquinazolin-4-yl)-2,3,4,5-tetrahydro-1,4-benzoxazepin-7-yl]-N-(piperidin-2-ylmethyl)pyridine-3-sulfonamide], the IC50 lay in the range of 10 to 50 nM.

With `CC1(C)CCc2ncnc(N3CCOc4ccc(-c5cnc(N)c(S(=O)(=O)NCC6CCCNC6)c5)cc4C3)c2C1` (stereo not shown) [Example 377, 2-amino-5-[4-(6,6-dimethyl-5,6,7,8-tetrahydroquinazolin-4-yl)-2,3,4,5-tetrahydro-1,4-benzoxazepin-7-yl]-N-(piperidin-3-ylmethyl)pyridine-3-sulfonamide], the IC50 is 50 to 250 nM.

`CC1(C)CCc2ncnc(N3CCOc4ccc(-c5cnc(N)c(S(=O)(=O)NCC6CCNCC6)c5)cc4C3)c2C1` [Example 378, 2-amino-5-[4-(6,6-dimethyl-5,6,7,8-tetrahydroquinazolin-4-yl)-2,3,4,5-tetrahydro-1,4-benzoxazepin-7-yl]-N-(piperidin-4-ylmethyl)pyridine-3-sulfonamide]: the IC50 was 50 to 250 nM. The figure for `CN(C)C(=O)c1cc(-c2ccc3c(c2)CN(c2ncnc4c2CC(C)(C)CC4)CCO3)cnc1N` [Example 379, 2-amino-5-[4-(6,6-dimethyl-5,6,7,8-tetrahydroquinazolin-4-yl)-2,3,4,5-tetrahydro-1,4-benzoxazepin-7-yl]-N,N-dimethylpyridine-3-carboxamide] is 50 to 250 nM.
